{"source": "patent US20230312587A1", "about": "“PTERIDINONE COMPOUNDS AND USES THEREOF” (Vertex Pharmaceutical Incorporated, priority 2018, published 2023)"}
{"test_system": "β-catenin-TCF-mediated reporter transcription activity in Colo 205 cells", "assay": "Colo 205 reporter assay (TCF/LEF luciferase)", "format": "cell-based", "conditions": "Colo 205 TCF/LEF luciferase reporter, five hours after addition of compound; read-out: TCF reporter Colo205 IC50", "source_text": "(§1) The compounds of the invention described herein were screened using the assay procedure for β-catenin-TCF-mediated reporter transcription activity described below.\n(§2) Reporter cell lines were generated by stably transfecting cells of cancer cell lines (e.g., colon cancer) with a plasmid reporter construct (From SABiosciences, a QIAGEN company) that includes TCF/LEF promoter driving expression of the firefly luciferase gene. TCF/LEF reporter constructs were made in which TCF/LEF promoter, a promoter with optimal number of TCF/LEF binding sites designed by SABiosceinces, was linked upstream of the firefly luciferase gene. This construct could also include a puromycin resistance gene as a selectable marker. This construct could also be used to stably transfect Colo 205 cells, a colon cancer cell line having a mutated APC gene that causes a constitutively active β-catenin. A control cell line was generated using another plasmid construct containing the luciferase gene under the control of a CMV basal promoter which is not activated by p-catenin.\n(§3) Colo 205 Cultured cells with a stably transfected reporter construct were plated at approximately 10,000 cells per well into 384 well multi-well plates for twenty four hours. The testing compounds were then added to the wells in 2-fold serial dilutions using a twenty micromolar top concentration. A series of control wells for each cell type received only compound solvent. Five hours after the addition of compound, reporter activity for luciferase was assayed, by addition of the SteadyGlo luminescence reagent (Promega). The reporter luminescence activity was measured using Pherastar plate reader (BMG Labtech). Readings were normalized to DMSO only treated cells, and normalized activities were then used in the IC50 calculations. The Colo 205 reporter assay data are summarized in Table 45: A<0.3 μM; 0.3 μM≤B<1.0 μM; 1.0 μM≤C<5.0 μM; D≥5.0 μM\n(§4) Colo 205 reporter assay data has also been obtained for certain R-isomers of Formula (I) wherein R^4 is —H or -D, and wherein the carbon to which R^3 and R^4 are attached (C2 carbon of Formula (X)) has R stereochemistry; such epimeric compounds are represented using the suffix “B” attached to the Compound described herein having the S stereochemistry at the carbon to which R^3 and R^4 are attached: […]", "units": {"IC50": "nM"}}
{"compound": "Cc1nc(N[C@H]2C[C@H](Oc3ccc(F)cc3F)C2)nc2c1NC(=O)[C@H](C)N2C", "note": "(relative stereo) [Compound 295, (7S)-4,7,8-trimethyl-2-((trans-3-(2,4-drifluorophenoxy)cyclobutyl)amino)-7,8-dihydropteridin-6(5H)-one]", "IC50": "< 300"}
{"compound": "COCC1(C)C(=O)Nc2c(C)nc(N[C@H]3C[C@H](Oc4cnc(C(F)(F)F)nc4)C3)nc2N1C", "note": "(relative stereo) [Compound 706, 7-(methoxymethyl)-4,7,8-trimethyl-2-((trans-3-((2-(trifluoromethyl)pyrimidin-5-yl)oxy)cyclobutyl)amino)-7,8-dihydropteridin-6(5H)-one]", "IC50": "300 to 1000"}
{"compound": "COCC1(C)C(=O)Nc2c(C)nc(N[C@H]3C[C@H](Oc4cnc(C(F)(F)F)nc4)C3)nc2N1C", "note": "(relative stereo) [Compound 710, 7-(methoxymethyl)-4,7,8-trimethyl-2-((trans-3-((2-(trifluoromethyl)pyrimidin-5-yl)oxy)cyclobutyl)amino)-7,8-dihydropteridin-6(5H)-one]", "IC50": "1000 to 5000"}
{"compound": "COCC1(C)C(=O)Nc2c(C)nc(N[C@H]3C[C@H](Oc4cc(F)c(F)c(F)c4)C3)nc2N1C", "note": "(relative stereo) [Compound 720, 7-(methoxymethyl)-4,7,8-trimethyl-2-((trans-3-(3,4,5-trifluorophenoxy)cyclobutyl)amino)-7,8-dihydropteridin-6(5H)-one]", "IC50": "300 to 1000"}
{"compound": "C[C@H]1C(=O)Nc2cnc(NC3CC(C)(OCc4cc(F)c(F)c(F)c4)C3)nc2N1C", "note": "(stereo in doubt) [Compound 289, (S)-7,8-dimethyl-2-((cis-3-methyl-3-((3,4,5-trifluorobenzyl)oxy)cyclobutyl)amino)-7,8-dihydropteridin-6(5H)-one]", "IC50": "≥ 5000"}
{"compound": "Cc1nc(NC2CC(C)(OCc3cc(F)c(F)c(F)c3)C2)nc2c1NC(=O)[C@H](C)N2C", "note": "(stereo in doubt) [Compound 290, (7S)-4,7,8-trimethyl-2-((cis-3-methyl-3-((3,4,5-trifluorobenzyl)oxy)cyclobutyl)amino)-7,8-dihydropteridin-6(5H)-one]", "IC50": "≥ 5000"}
{"test_system": "β-catenin-TCF-mediated reporter transcription activity in Colo 205 cells", "assay": "Colo 205 reporter assay (TCF/LEF luciferase)", "format": "cell-based", "conditions": "Homo sapiens, COLO 205, 5 h, Colo 205 TCF/LEF luciferase reporter, five hours after addition of compound; read-out: TCF reporter Colo205 IC50", "source_text": "as §1, §2, §3, §4", "units": {"IC50": "nM"}}
{"compound": "Cc1nc(N[C@H]2CC[C@@H](Oc3cc(F)c(F)c(F)c3)C2)nc2c1NC(=O)[C@H](C)N2C", "note": "(mixture of isomers) [Compound 259, (7S)-4,7,8-trimethyl-2-((cis-3-(3,4,5-trifluorophenoxy)cyclopentyl)amino)-7,8-dihydropteridin-6(5H)-one]", "IC50": "≥ 5000"}
{"compound": "Cc1nc(N[C@H]2CC[C@H](Oc3cc(F)c(F)c(F)c3)C2)nc2c1NC(=O)[C@H](C)N2C", "note": "(mixture of isomers) [Compound 260, (7S)-4,7,8-trimethyl-2-((trans-3-(3,4,5-trifluorophenoxy)cyclopentyl)amino)-7,8-dihydropteridin-6(5H)-one]", "IC50": "300 to 1000"}
{"compound": "Cc1nc(N[C@@H]2COC[C@H]2Oc2ccc(F)cc2)nc2c1NC(=O)[C@H](C)N2C", "note": "(mixture of isomers) [Compound 297, (7S)-2-((trans-4-(4-fluorophenoxy)tetrahydrofuran-3-yl)amino)-4,7,8-trimethyl-7,8-dihydropteridin-6(5H)-one]", "IC50": "≥ 5000"}
{"compound": "Cc1nc(N[C@@H]2CC[C@H](NC(=O)c3cc(F)c(F)c(F)c3)C2)nc2c1NC(=O)[C@H](C)N2C", "note": "(mixture of isomers) [Compound 298, 3,4,5-trifluoro-N-(cis-3-(((S)-4,7,8-trimethyl-6-oxo-5,6,7,8-tetrahydropteridin-2-yl)amino)cyclopentyl)benzamide]", "IC50": "1000 to 5000"}
{"compound": "COC1(C2C(=O)Nc3c(C)nc(N[C@H]4C[C@H](Oc5cc(F)c(F)c(F)c5)C4)nc3N2C)CCC1", "note": "(relative stereo) [Compound 667, 7-(1-methoxycyclobutyl)-4,8-dimethyl-2-((trans-3-(3,4,5-trifluorophenoxy)cyclobutyl)amino)-7,8-dihydropteridin-6(5H)-one]", "IC50": "< 300"}
{"compound": "COC1(C2C(=O)Nc3c(C)nc(N[C@H]4C[C@H](COc5ccc(C(F)(F)F)nc5)C4)nc3N2C)CCC1", "note": "(relative stereo) [Compound 669, 7-(1-methoxycyclobutyl)-4,8-dimethyl-2-((trans-3-(((6-(trifluoromethyl)pyridin-3-yl)oxy)methyl)cyclobutyl)amino)-7,8-dihydropteridin-6(5H)-one]", "IC50": "< 300"}
{"compound": "COC1(C2C(=O)Nc3c(C)nc(N[C@H]4C[C@H](Oc5ccc(C(F)(F)F)nc5)C4)nc3N2C)CCC1", "note": "(relative stereo) [Compound 671, 7-(1-methoxycyclobutyl)-4,8-dimethyl-2-((trans-3-((6-(trifluoromethyl)pyridin-3-yl)oxy)cyclobutyl)amino)-7,8-dihydropteridin-6(5H)-one]", "IC50": "< 300"}
{"compound": "COC1(C2C(=O)Nc3c(C)nc(N[C@H]4C[C@@H](Nc5cnc(C(F)(F)F)cn5)C4)nc3N2C)CCC1", "note": "(relative stereo) [Compound 672, 7-(1-methoxycyclobutyl)-4,8-dimethyl-2-((cis-3-((5-(trifluoromethyl)pyrazin-2-yl)amino)cyclobutyl)amino)-7,8-dihydropteridin-6(5H)-one]", "IC50": "< 300"}
{"compound": "COC1(C2C(=O)Nc3c(C)nc(N[C@H]4C[C@@H](Cn5nccc5C(F)(F)F)C4)nc3N2C)CC1", "note": "(relative stereo) [Compound 676, 7-(1-methoxycyclopropyl)-4,8-dimethyl-2-((cis-3-((5-(trifluoromethyl)-1H-pyrazol-1-yl)methyl)cyclobutyl)amino)-7,8-dihydropteridin-6(5H)-one]", "IC50": "< 300"}
{"compound": "Cc1nc(N[C@H]2C[C@@H](Nc3cnc(C(F)(F)F)cn3)C2)nc2c1NC(=O)C1(CCOC1)N2C", "note": "(relative stereo) [Compound 687, 4′,8′-dimethyl-2′-((cis-3-((5-(trifluoromethyl)pyrazin-2-yl)amino)cyclobutyl)amino)-4,5,5′,8′-tetrahydro-2H,6′H-spiro[furan-3,7′-pteridin]-6′-one]", "IC50": "300 to 1000"}
{"compound": "Cc1nc(N[C@H]2C[C@H](Cn3nccc3C(F)(F)F)C2)nc2c1NC(=O)C1(CCOC1)N2C", "note": "(relative stereo) [Compound 688, 4′,8′-dimethyl-2′-((trans-3-((5-(trifluoromethyl)-1H-pyrazol-1-yl)methyl)cyclobutyl)amino)-4,5,5′,8′-tetrahydro-2H,6′H-spiro[furan-3,7′-pteridin]-6′-one]", "IC50": "< 300"}
{"compound": "Cc1nc(N[C@H]2C[C@H](Oc3ccc(C(F)(F)F)nc3)C2)nc2c1NC(=O)C1(CCOC1)N2C", "note": "(relative stereo) [Compound 689, 4′,8′-dimethyl-2′-((trans-3-((6-(trifluoromethyl)pyridin-3-yl)oxy)cyclobutyl)amino)-4,5,5′,8′-tetrahydro-2H,6′H-spiro[furan-3,7′-pteridin]-6′-one]", "IC50": "300 to 1000"}
{"compound": "Cc1nc(N[C@H]2C[C@@H](COc3ccc(C(F)(F)F)nc3)C2)nc2c1NC(=O)C1(CCOC1)N2C", "note": "(relative stereo) [Compound 697, 4′,8′-dimethyl-2′-((cis-3-(((6-(trifluoromethyl)pyridin-3-yl)oxy)methyl)cyclobutyl)amino)-4,5,5′,8′-tetrahydro-2H,6′H-spiro[furan-3,7′-pteridin]-6′-one]", "IC50": "300 to 1000"}
{"compound": "COC1(C2C(=O)Nc3c(C)nc(N[C@H]4C[C@H](Oc5cnc(C(F)(F)F)nc5)C4)nc3N2C)CCC1", "note": "(relative stereo) [Compound 718, 7-(1-methoxycyclobutyl)-4,8-dimethyl-2-((trans-3-((2-(trifluoromethyl)pyrimidin-5-yl)oxy)cyclobutyl)amino)-7,8-dihydropteridin-6(5H)-one]", "IC50": "< 300"}
{"compound": "COCC1(C)C(=O)Nc2c(C)nc(N[C@H]3C[C@H](Oc4cc(F)c(F)c(F)c4)C3)nc2N1C", "note": "(relative stereo) [Compound 719, 7-(methoxymethyl)-4,7,8-trimethyl-2-((trans-3-(3,4,5-trifluorophenoxy)cyclobutyl)amino)-7,8-dihydropteridin-6(5H)-one]", "IC50": "< 300"}
{"compound": "COCC1(C)C(=O)Nc2c(C)nc(N[C@H]3C[C@H](Oc4ccc(C(F)(F)F)nc4)C3)nc2N1C", "note": "(relative stereo) [Compound 724, 7-(methoxymethyl)-4,7,8-trimethyl-2-((trans-3-((6-(trifluoromethyl)pyridin-3-yl)oxy)cyclobutyl)amino)-7,8-dihydropteridin-6(5H)-one]", "IC50": "300 to 1000"}
{"compound": "CNc1ccc(Cn2cc(CNc3nc(C)c4c(n3)N(C)[C@@H](C)C(=O)N4)cn2)cn1", "note": "[Compound 10, (7S)-4,7,8-trimethyl-2-(((1-((6-(methylamino)pyridin-3-yl)methyl)-1H-pyrazol-4-yl)methyl)amino)-7,8-dihydropteridin-6(5H)-one]", "IC50": "≥ 5000"}
{"compound": "O=C1Nc2cnc(NCc3cnn(Cc4ccc(F)cc4)c3)nc2N[C@H]1CCO", "note": "[Compound 11, (7S)-2-(((1-(4-Fluorobenzyl)-1H-pyrazol-4-yl)methyl)amino)-7-(2-hydroxyethyl)-7,8-dihydropteridin-6(5H)-one]", "IC50": "≥ 5000"}
